Test results as given in PubChem BioAssay (NCI).
Several values for one entry are separate records, joined by “and”; a condition that tells them apart may be missing. Equal values may be shown once.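 Values below derive from 48-hour exposures of cells grown in 96-well plates, with endpoints linearly interpolated between the two concentrations bracketing the appropriate inhibition level. At the TGI there is no net growth.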

Columns and labels:
Experiment in all cases: NCI tumour cell line growth inhibition, 48 h
HOP-92 NSCLC = tested on: HOP-92 NSCLC
MCF7 breast = tested on: MCF7 breast
RPMI-8226 leukemia = tested on: RPMI-8226 leukemia
NCI-H522 lung = tested on: NCI-H522 lung
786-0 renal = tested on: 786-0 renal
SNB-19 CNS = tested on: SNB-19 CNS
T-47D breast = tested on: T-47D breast
HL-60(TB) leukemia = tested on: HL-60(TB) leukemia
HS 578T breast = tested on: HS 578T breast
SK-MEL-2 melanoma = tested on: SK-MEL-2 melanoma
NCI/ADR-RES ovarian = tested on: NCI/ADR-RES ovarian
DU-145 prostate = tested on: DU-145 prostate
NCI-H460 lung = tested on: NCI-H460 lung
MDA-MB-435 = tested on: MDA-MB-435
CAKI-1 renal = tested on: CAKI-1 renal
SF-295 CNS = tested on: SF-295 CNS
MDA-N = tested on: MDA-N
OVCAR-5 ovarian = tested on: OVCAR-5 ovarian
SNB-75 CNS = tested on: SNB-75 CNS
SK-MEL-28 melanoma = tested on: SK-MEL-28 melanoma
RXF 393 renal = tested on: RXF 393 renal
A549 NSCLC = tested on: A549 NSCLC
EKVX NSCLC = tested on: EKVX NSCLC
SR leukemia = tested on: SR leukemia
DLD-1 colon = tested on: DLD-1 colon
K-562 leukemia = tested on: K-562 leukemia
UO-31 renal = tested on: UO-31 renal
UACC-62 melanoma = tested on: UACC-62 melanoma
OVCAR-4 ovarian = tested on: OVCAR-4 ovarian
KM12 colon = tested on: KM12 colon
MDA-MB-231 breast = tested on: MDA-MB-231 breast
HOP-18 NSCLC = tested on: HOP-18 NSCLC
HOP-62 NSCLC = tested on: HOP-62 NSCLC
SK-OV-3 ovarian = tested on: SK-OV-3 ovarian
M14 melanoma = tested on: M14 melanoma
UACC-257 melanoma = tested on: UACC-257 melanoma
SN12K1 renal = tested on: SN12K1 renal
HT29 colon = tested on: HT29 colon
LOX IMVI melanoma = tested on: LOX IMVI melanoma
SK-MEL-5 melanoma = tested on: SK-MEL-5 melanoma
PC-3 prostate = tested on: PC-3 prostate
IGROV1 ovarian = tested on: IGROV1 ovarian
DMS 273 small cell lung = tested on: DMS 273 small cell lung
SF-539 CNS = tested on: SF-539 CNS
SF-268 CNS = tested on: SF-268 CNS
OVCAR-8 ovarian = tested on: OVCAR-8 ovarian
BT-549 breast = tested on: BT-549 breast
KM20L2 colon = tested on: KM20L2 colon
M19-MEL melanoma = tested on: M19-MEL melanoma
MALME-3M melanoma = tested on: MALME-3M melanoma
NCI-H23 lung = tested on: NCI-H23 lung
SW-620 colon = tested on: SW-620 colon
SNB-78 CNS = tested on: SNB-78 CNS
HCT-15 colon = tested on: HCT-15 colon
NCI-H226 lung = tested on: NCI-H226 lung
HCC-2998 colon = tested on: HCC-2998 colon
A498 renal = tested on: A498 renal
OVCAR-3 ovarian = tested on: OVCAR-3 ovarian
U251 CNS = tested on: U251 CNS
HCT-116 colon = tested on: HCT-116 colon
DMS 114 small cell lung = tested on: DMS 114 small cell lung
TK-10 renal = tested on: TK-10 renal
SN12C renal = tested on: SN12C renal
COLO 205 colon = tested on: COLO 205 colon
CCRF-CEM leukemia = tested on: CCRF-CEM leukemia
ACHN renal = tested on: ACHN renal
P388 leukemia = tested on: P388 leukemia
RXF-631 renal = tested on: RXF-631 renal
MOLT-4 leukemia = tested on: MOLT-4 leukemia
XF 498 CNS = tested on: XF 498 CNS
LXFL 529 NSCLC = tested on: LXFL 529 NSCLC

Measured: TGI

Nc1ncnc2c1nc(Cl)n2C1OC2COP(=O)(O)OC2C1O (stereo not drawn)
204 µM and > 100 µM: OVCAR-4 ovarian
229 µM and > 92.9 µM: HOP-92 NSCLC
> 255 µM: MDA-MB-435
> 283 µM: OVCAR-5 ovarian
> 222 µM: DMS 273 small cell lung | TK-10 renal
> 280 µM: HS 578T breast
> 194 µM: DLD-1 colon
> 162 µM: PC-3 prostate
> 213 µM: SNB-75 CNS
> 209 µM: HL-60(TB) leukemia
163 µM and > 100 µM: HOP-62 NSCLC
> 155 µM: NCI-H226 lung
153 µM and > 100 µM: CAKI-1 renal
not listed: RXF-631 renal | MOLT-4 leukemia | XF 498 CNS | LXFL 529 NSCLC
> 300 µM: all other assays above

O=[N+]([O-])c1nccn1CC(O)CN1CC1 (stereo not drawn)
94.7 µM: SK-OV-3 ovarian
98.2 µM: RXF 393 renal
50.9 µM: NCI-H522 lung
73.1 µM: HL-60(TB) leukemia
not listed: HOP-92 NSCLC | MCF7 breast | T-47D breast | HS 578T breast | NCI/ADR-RES ovarian | DU-145 prostate | MDA-MB-435 | MDA-N | MDA-MB-231 breast | SN12K1 renal | LOX IMVI melanoma | PC-3 prostate | BT-549 breast | HCC-2998 colon | P388 leukemia
> 100 µM: all other assays above
